# According to PubChem BioAssay AID624361 (Broad Institute, 2012):
# Records with an inconclusive call do not appear.
# System: LMP1-induced NF-kappaB luciferase reporter cells, luminescence
# Test: LMP1-induced NF-kB luciferase signal inhibition – cell-based, EBV LMP1, dry powder, set 2, dose response (AID 624361)
row,Compound,AC35 [µM]
1,COc1ccccc1C#Cc1ccc([C@H]2[C@H](C#N)N(C(=O)C3CC3)[C@H]2CO)cc1,20
2,Cc1noc(C)c1S(=O)(=O)Nc1ccc2c(c1)C(=O)N([C@H](C)CO)C[C@H](C)[C@H](CN(C)Cc1ccc(C(F)(F)F)cc1)OCCCC[C@@H](C)O2,33.8
3,O=C(C[C@@H]1CC[C@@H]2[C@H](COC[C@H](O)CN2Cc2ccc3c(c2)OCO3)O1)Nc1ccc(-c2ccccc2)cc1,7.79
4,CC(C)(C)[S@](=O)N1Cc2cc(C(=O)NCC(F)(F)F)nc(-c3cccc(-c4cccc(F)c4)c3)c2[C@@H]1CCO,8.29
5,COc1cccc(S(=O)(=O)N(C)C[C@H]2Oc3cc(C4=CCCCC4)ccc3S(=O)(=O)N([C@H](C)CO)C[C@H]2C)c1,33
6,O=C(C[C@@H]1CC[C@@H]2[C@H](COC[C@@H](O)CN2Cc2ccc(Oc3ccccc3)cc2)O1)N1CCc2ccccc2C1,17.8
7,CC(C)(C)[S@@](=O)N1Cc2cc(C(=O)NCc3ccccc3F)nc(-c3cccc(-c4ccncc4)c3)c2[C@H]1CCO,35.5
8,Cc1ccc(S(=O)(=O)N(C)C[C@H]2Oc3cc(C#Cc4ccncc4)ccc3S(=O)(=O)N([C@@H](C)CO)C[C@H]2C)cc1,11.5
9,COc1ccccc1C#Cc1cnc2c(c1)C(=O)N([C@@H](C)CO)C[C@H](C)[C@@H](CN(C)C(=O)c1ccc3c(c1)OCO3)O2,31.2
10,CC(C)NC(=O)N1Cc2cc(C(=O)NC3Cc4ccccc4C3)nc(-c3cccc(-c4cccnc4)c3)c2[C@@H]1CCO,23.7
11,CN(C)c1ccc2c(c1)[C@@H]1C[C@@H](CC(=O)NCc3ccc(Oc4ccccc4)cc3)O[C@H](CO)[C@@H]1O2,12.9
12,COc1cccc(S(=O)(=O)N(C)C[C@H]2Oc3cc(C4=CCCCC4)ccc3S(=O)(=O)N([C@@H](C)CO)C[C@@H]2C)c1,20.2
13,COc1cccc(S(=O)(=O)N(C)C[C@@H]2Oc3cc(C4=CCCCC4)ccc3S(=O)(=O)N([C@@H](C)CO)C[C@H]2C)c1,20.9
14,O=C(C[C@H]1C[C@@H]2c3cc(NC(=O)c4ccc5c(c4)OCO5)ccc3O[C@@H]2[C@@H](CO)O1)NCc1ccc(Oc2ccccc2)cc1,26.6
15,N#C[C@H]1[C@H](c2ccc(C#Cc3ccccc3F)cc2)[C@H](CO)N1C(=O)c1cccnc1,20.8
16,C[C@@H]1CN([C@H](C)CO)S(=O)(=O)c2ccc(C#C[C@@H](C)O)cc2O[C@H]1CN(C)Cc1ccc(-c2ccccc2)cc1,22.4
17,Cc1noc(C)c1S(=O)(=O)Nc1ccc2c(c1)C(=O)N([C@@H](C)CO)C[C@@H](C)[C@@H](CN(C)Cc1ccc(C(F)(F)F)cc1)OCCCC[C@H](C)O2,32.8
18,CN1C(=O)c2cc(NC(=O)c3ccc(C(F)(F)F)cc3)ccc2OC[C@@H]2O[C@@H](CC(=O)NC3Cc4ccccc4C3)CC[C@H]21,11.6
19,Cc1noc(C)c1S(=O)(=O)Nc1ccc2c(c1)C(=O)N([C@@H](C)CO)C[C@@H](C)[C@H](CN(C)Cc1ccc(C(F)(F)F)cc1)OCCCC[C@H](C)O2,25.6
20,N#C[C@H]1[C@@H](c2ccc(-c3cccnc3)cc2)[C@@H](CO)N1C(=O)Nc1ccc(F)cc1,34.3
21,N#C[C@H]1[C@H](c2ccc(C#Cc3ccccc3F)cc2)[C@@H](CO)N1C(=O)c1cccnc1,22.8
22,CC(C)c1ccc(NC(=O)C[C@H]2CC[C@H]3[C@@H](COc4ccc(NC(=O)Nc5ccc(F)c(F)c5)cc4C(=O)N3C)O2)cc1,18.1
23,C[C@@H]1CN([C@@H](C)CO)S(=O)(=O)c2ccc(C#C[C@@H](C)O)cc2O[C@H]1CN(C)Cc1ccc(-c2ccccc2)cc1,21.5

row,Compound,AC35 [µM]
1,O=C(C[C@H]1C[C@@H]2c3cc(NS(=O)(=O)c4ccc(F)cc4)ccc3O[C@@H]2[C@@H](CO)O1)NCc1ccc(Oc2ccccc2)cc1,12.3
2,O=C(C[C@@H]1C[C@H]2c3cc(NC(=O)c4ccc5c(c4)OCO5)ccc3O[C@H]2[C@H](CO)O1)NC1CCCCC1,24
3,Cc1noc(C)c1S(=O)(=O)Nc1ccc2c(c1)C(=O)N([C@H](C)CO)C[C@H](C)[C@H](CN(C)Cc1ccc(C(F)(F)F)cc1)OCCCC[C@H](C)O2,27.8
4,Cc1noc(C)c1S(=O)(=O)Nc1ccc2c(c1)C(=O)N([C@@H](C)CO)C[C@H](C)[C@@H](CN(C)Cc1ccc(C(F)(F)F)cc1)OCCCC[C@H](C)O2,30.3
5,CCCNC(=O)c1cc2c(c(-c3cccc(-c4cccc(F)c4)c3)n1)[C@H](CCO)N([S@@](=O)C(C)(C)C)C2,30.6
6,C[C@@H]1CN([C@H](C)CO)S(=O)(=O)c2ccc(/C=C/c3ccccc3)cc2O[C@H]1CN(C)C(=O)NC1CCCCC1,19.3
7,Cc1noc(C)c1S(=O)(=O)Nc1ccc2c(c1)C(=O)N([C@H](C)CO)C[C@H](C)[C@@H](CN(C)Cc1ccc(C(F)(F)F)cc1)OCCCC[C@H](C)O2,22.1
8,O=C(C[C@@H]1C[C@H]2c3cc(NS(=O)(=O)c4ccc(F)cc4)ccc3O[C@H]2[C@@H](CO)O1)NCc1ccc(Oc2ccccc2)cc1,14.7
9,Cc1noc(C)c1S(=O)(=O)Nc1ccc2c(c1)C(=O)N([C@@H](C)CO)C[C@H](C)[C@H](CN(C)Cc1ccc(C(F)(F)F)cc1)OCCCC[C@@H](C)O2,28.9
10,Cc1noc(C)c1S(=O)(=O)Nc1ccc2c(c1)C(=O)N([C@@H](C)CO)C[C@H](C)[C@@H](CN(C)Cc1ccc(C(F)(F)F)cc1)OCCCC[C@@H](C)O2,21.5
11,O=C(C[C@H]1CC[C@H]2[C@@H](COC[C@@H](O)CN2Cc2ccc3c(c2)OCO3)O1)Nc1ccc(-c2ccccc2)cc1,16.1
12,C[C@H](CO)N1C[C@H](C)[C@H](CN(C)C(=O)NC2CCCCC2)Oc2cc(/C=C/c3ccccc3)ccc2S1(=O)=O,24
13,CN1C(=O)c2cc(NC(=O)Cc3cccs3)ccc2OC[C@@H]2O[C@H](CC(=O)NCc3ccc(-c4ccccc4)cc3)CC[C@H]21,29.4
14,Cc1cc(C(=O)Nc2ccc3c(c2)C(=O)N(C)[C@@H]2CC[C@@H](CC(=O)NCc4ccc(-c5ccccc5)cc4)O[C@H]2CO3)no1,4.76
15,COc1cccc(C#Cc2ccc([C@@H]3[C@@H](C#N)N(C(=O)c4ccccn4)[C@@H]3CO)cc2)c1,18
16,C[C@H]1CN([C@@H](C)CO)S(=O)(=O)c2ccc(C#Cc3ccncc3)cc2O[C@H]1CN(C)C(=O)Nc1ccc2c(c1)OCO2,14.8
17,Cc1noc(C)c1S(=O)(=O)Nc1ccc2c(c1)C(=O)N([C@H](C)CO)C[C@@H](C)[C@@H](CN(C)Cc1ccc(C(F)(F)F)cc1)OCCCC[C@H](C)O2,26.4
18,O=C(Nc1ccc(C(F)(F)F)cc1)Nc1ccc2c(c1)[C@@H]1C[C@H](CC(=O)N3CCc4ccccc4C3)O[C@@H](CO)[C@@H]1O2,9.85
19,O=C(C[C@@H]1C[C@@H]2c3cc(NS(=O)(=O)c4ccc(F)cc4)ccc3O[C@@H]2[C@@H](CO)O1)NCc1ccc(Oc2ccccc2)cc1,12.3
20,COc1cccc(C#Cc2ccc([C@@H]3[C@H](C#N)N(C(=O)c4ccccn4)[C@H]3CO)cc2)c1,26.1
21,C[C@@H]1CN([C@H](C)CO)C(=O)Cc2cc(NC(=O)Cc3ccccc3)ccc2O[C@@H]1CN(C)Cc1ccc(C(F)(F)F)cc1,31.5
22,O=C(C[C@H]1C[C@H]2c3cc(NS(=O)(=O)c4ccc(F)cc4)ccc3O[C@H]2[C@H](CO)O1)NCc1ccc(Oc2ccccc2)cc1,10.3
23,Cc1ccc(S(=O)(=O)N(C)C[C@H]2Oc3cc(C#Cc4ccncc4)ccc3S(=O)(=O)N([C@@H](C)CO)C[C@@H]2C)cc1,10.2

row,Compound,AC35 [µM]
1,CN(C)C(=O)c1cccc(-c2cccc(-c3nc(C(=O)NCc4ccccc4)cc4c3[C@@H](CCO)N([S@](=O)C(C)(C)C)C4)c2)c1,16.5
2,C[C@@H]1CN([C@@H](C)CO)S(=O)(=O)c2ccc(C#Cc3ccncc3)cc2O[C@H]1CN(C)C(=O)Nc1ccc2c(c1)OCO2,24
3,Cc1cc(C(=O)Nc2ccc3c(c2)C(=O)N(C)[C@H]2CC[C@@H](CC(=O)NCc4ccc(-c5ccccc5)cc4)O[C@H]2CO3)no1,14.2
4,COc1ccc(S(=O)(=O)N(C)C[C@@H]2Oc3ncc(/C=C/c4ccccc4)cc3C(=O)N([C@@H](C)CO)C[C@H]2C)cc1,28.6
5,COc1cccc(S(=O)(=O)N(C)C[C@@H]2Oc3cc(C4=CCCCC4)ccc3S(=O)(=O)N([C@H](C)CO)C[C@H]2C)c1,23.4
6,CC(C)(C)[S@@](=O)N1Cc2cc(C(=O)NCc3ccccc3F)nc(-c3cccc(-c4cccnc4)c3)c2[C@H]1CCO,29.5
7,Cc1noc(C)c1S(=O)(=O)Nc1ccc2c(c1)C(=O)N([C@@H](C)CO)C[C@H](C)[C@H](CN(C)Cc1ccc(C(F)(F)F)cc1)OCCCC[C@H](C)O2,33.4
8,Cc1noc(C)c1S(=O)(=O)Nc1ccc2c(c1)C(=O)N([C@@H](C)CO)C[C@@H](C)[C@H](CN(C)Cc1ccc(C(F)(F)F)cc1)OCCCC[C@@H](C)O2,31.7
9,COc1ccccc1C#Cc1ccc2c(c1)O[C@H](CN(C)Cc1cccnc1)[C@H](C)CN([C@H](C)CO)S2(=O)=O,20.3
10,CC(C)NC(=O)N1Cc2cc(C(=O)NC3Cc4ccccc4C3)nc(-c3cccc(-c4cccnc4)c3)c2[C@H]1CCO,28.2
11,COc1ccc(S(=O)(=O)N(C)C[C@H]2Oc3ncc(/C=C/c4ccccc4)cc3C(=O)N([C@H](C)CO)C[C@@H]2C)cc1,20.5
12,O=C(C[C@H]1C[C@H]2c3cc(NC(=O)c4ccc5c(c4)OCO5)ccc3O[C@H]2[C@H](CO)O1)NCc1ccc(Oc2ccccc2)cc1,20.7
13,CN(C)c1ccc2c(c1)[C@@H]1C[C@H](CC(=O)NCc3ccc(Oc4ccccc4)cc3)O[C@@H](CO)[C@@H]1O2,11.4
14,O=C(Nc1ccc(C(F)(F)F)cc1)Nc1ccc2c(c1)[C@H]1C[C@H](CC(=O)N3CCc4ccccc4C3)O[C@H](CO)[C@H]1O2,24.9
15,COc1ccc(NC(=O)N(C)C[C@@H]2Oc3cc(C#CCC(C)C)ccc3S(=O)(=O)N([C@@H](C)CO)C[C@@H]2C)cc1,28.3
16,C[C@H]1CN([C@@H](C)CO)C(=O)c2cc(C#Cc3ccccc3F)cnc2O[C@@H]1CN(C)C(=O)C1CCCCC1,24.6
17,COc1cccc(S(=O)(=O)N(C)C[C@@H]2Oc3cc(C4=CCCCC4)ccc3S(=O)(=O)N([C@@H](C)CO)C[C@@H]2C)c1,24
18,O=C(Nc1ccc(C(F)(F)F)cc1)Nc1ccc2c(c1)[C@@H]1C[C@H](CC(=O)N3CCc4ccccc4C3)O[C@H](CO)[C@@H]1O2,8.02
19,COc1ccccc1C#Cc1ccc2c(c1)O[C@H](CN(C)Cc1cccnc1)[C@H](C)CN([C@@H](C)CO)S2(=O)=O,18.3
20,C[C@@H]1CN([C@@H](C)CO)C(=O)Cc2cc(NC(=O)Cc3ccccc3)ccc2O[C@H]1CN(C)Cc1ccc(C(F)(F)F)cc1,30
21,N#C[C@@H]1[C@H](c2ccc(C#Cc3ccccc3F)cc2)[C@@H](CO)N1C(=O)c1cccnc1,0.9
